Laboratory results as given in US10407388B2, “Thiourea derivatives as activators of RORα and pharmaceutical composition containing same” (SEOUL NATIONAL UNIVERSITY R & DB FOUNDATION, priority 2011, dated 2019).

Columns and labels:
A7r5 = assay: Proliferation of vascular smooth muscle cells, MTT; assay type: cell-based, rat; settings: 100 μM for 2 days, 4 days, or 6 days, FIG. 14
Procedure: A7r5, which is a rat smooth muscle cell line, was purchased from ATCC. A7r5 was cultured in 5% CO2 using a DMEM supplemented with 10% FBS, penicillin (100 U/ml), and streptomycin (100 μg/ml) prior to use in an experiment. A7r5 cells (2×10^3 cells/well) were seeded on a 96-well culture plate and cultured overnight. After culturing, the A7r5 cells were treated with each of the JC1-40 and JC1-42 compounds at a concentration of 100 μM for 2 days, 4 days, or 6 days. Subsequently, the A7r5 cells were treated with MTT (3-4,5-dimethylthiazol-2-yl)-2,5-diphenyl-tetrazolium bromide) (2 mg/ml, 50 μl) for 4 hours, and then the medium was removed and 200 μl of DMSO was added to the plate. The contents in the plate were mixed for 5 minutes, and then absorbance was measured at 595 nm. Data was attained as the mean and SD for the three independent experimental results, and the results thereof are illustrated in FIG. 14.

FAS = assay: Expression of FAS protein in liver of mice with high-fat diet-induced fatty liver, western blotting; assay type: in vivo; settings: oral, 10 mg/kg/day or 30 mg/kg/day for 2 days; liver tissue; FIG. 11b
Procedure: (§1) 3 days after the diet was fed, the mice were fed the high-fat diet containing safflower oil while being orally administered JC1-40 and JC1-42, which had been diluted with 0.5% carboxymethyl cellulose, at a dose of 10 mg/kg/day or 30 mg/kg/day for 2 days. 5 days after the diet was fed, the mice were sacrificed to extract liver tissues therefrom, and the expression of proteins was analyzed by western blotting analysis. That is, after treatment, each liver tissue was homogenized in a lysis buffer containing 50 mM NaCl, 50 mM Tris pH 7.4, 5 mM EDTA, 1% NP-40, and a protease inhibitor, and then centrifuged to obtain a total cell lysate. 20 μg to 30 μg of proteins collected from the total cell lysate was subjected to 7% to 9% SDS-PAGE, and was transferred to a polyvinylidene difluoride membrane (Millipore, Bedford, Mass., USA). […] Immunoreactive proteins were detected with Amersham ECL western blotting detection reagents using an HRP-conjugated secondary antibody (Zymed Lab). Protein concentrations were quantified by BCA (Pierce) analysis, and the expression of α-tubulin was monitored as a control. […]

ACC = assay: Phosphorylation of ACC in HepG2 cells, western blotting; assay type: cell-based, human; settings: 100 μM, 24 hours; FIGS. 7a and 7b
Procedure: HepG2 cells (1×10^6 cells/well) were seeded on a 60-dish, and cultured overnight in a DMEM containing 10% FBS. The HepG2 cells were maintained at 37° C. in a humidification thermostat containing 5% CO2 and 95% air. After culturing, the HepG2 cells were treated with 100 μM JC1-38 and JC1-40 (or 100 μM JC1-38 and JC1-42), 2 mM metfornin, and 2 mM AICIR for 24 hours. After treatment, the expression of RORα and phosphorylated ACC (pACC) proteins was analyzed by western blotting, and the expression of α-tubulin was monitored as a control. The results thereof are illustrated in FIGS. 7a and 7b.

[1] = tested on: high-fat diet-induced fatty liver mice model; assay: Blood biochemical analysis in high-fat diet-induced fatty liver mice model; assay type: in vivo; settings: FIG. 13; for amount of blood triglycerides, which had been increased by the high-fat diet / amount of blood glucose / amount of total blood cholesterol: oral, 10 mg/kg/day or 30 mg/kg/day for 2 days; for amount of blood glucose / amount of total blood cholesterol: versus high-fat diet group
Procedure: 3 days after the diet was fed, the mice were fed the high-fat diet containing safflower oil while being orally administered JC1-40 and JC142, which had been diluted with 0.5% carboxymethyl cellulose, at a dose of 10 mg/kg/day or 30 mg/kg/day for 2 days. 5 days after the diet was fed, the mice were sacrificed to collect blood, and serum samples were collected therefrom.

[2] = tested on: mice with high-fat diet-induced fatty liver; assay: Intrahepatic triglyceride, intrahepatic fat accumulation and body weight in mice with high-fat diet-induced fatty liver; assay type: in vivo; settings: oral, 10 mg/kg/day or 30 mg/kg/day for 2 days; for amount of intrahepatic triglyceride, which had been increased by the high-fat diet: FIG. 12a; for intrahepatic fat accumulation (Oil Red O staining): FIG. 12b; for body weights of the mice, which had been increased by the high-fat diet: FIG. 12c
Procedure: 3 days after the diet was fed, the mice were fed the high-fat diet containing safflower oil while being orally administered JC1-40 and JC142, which had been diluted with 0.5% carboxymethyl cellulose, at a dose of 10 mg/kg/day or 30 mg/kg/day for 2 days. 5 days after the diet was fed, the mice were sacrificed to extract liver tissues therefrom, and the amounts of intrahepatic triglycerides were measured using an EnzyChrom™ triglyceride assay kit (BioAssay Systems).
In addition, Oil Red O staining, which enables the identification of intrahepatic fat accumulation, was performed on the extracted liver tissues of the mice.

HepG2 cells = assay: Lipid accumulation in hepatocytes, Nile red staining and flow cytometry; assay type: cell-based, human; settings: 50 μM with oleic acid/palmitic acid mixture, 3 days; FIGS. 10a and 10b
Procedure: HepG2 cells (3×10^5 cells/well) were seeded on a 60-dish and cultured overnight in a DMEM containing 10% FBS. The HepG2 cells were maintained at 37° C. in a humidification thermostat containing 5% CO2 and 95% air. After culturing, the HepG2 cells were treated with 50 μM JC1-40 (or JC1-42) and, as a lipid generation inducing material, a fatty acid mixture prepared by mixing 0.5 mM oleic acid and 0.5 mM palmitic acid in a ratio of 2:1 (5 mM oleic acid and 5 mM palmitic acid were mixed in a medium containing 1% fatty acid-free bovine serum albumin (BSA) and diluted to the final concentration prior to use) for 3 days. After 3 days, cell lysates were collected, and stained with 1 μg/ml of Nile red at room temperature for 15 minutes, and the concentration of triglycerides was measured by a flow cytometry method using a FACSCalibur™ machine (BD Biosciences). Fluorescence emission was measured at a wavelength between 500 nm and 580 nm. The results thereof are illustrated in FIGS. 10a and 10b.

SREBP-1 = assay: Expression of SREBP-1 protein in liver of mice with high-fat diet-induced fatty liver, western blotting; assay type: in vivo; settings: oral, 10 mg/kg/day or 30 mg/kg/day for 2 days; liver tissue; FIG. 11b
Procedure: as §1

[3] = 30 mg/kg/day, compared to the high-fat diet group

Row | SMILES | proliferation of vascular smooth muscle cells (A7r5) | expression of FAS protein, which had been increased by the high-fat diet (FAS) | phosphorylation of ACC (ACC) | GOP [1, 3] | GPT [1, 3] | amount of high-density lipoproteins [1, 3] | amount of blood triglycerides, which had been increased by the high-fat diet [1] | amount of blood glucose [1] | amount of total blood cholesterol [1] | amount of intrahepatic triglyceride, which had been increased by the high-fat diet [2] | intrahepatic fat accumulation (Oil Red O staining) [2] | body weights of the mice, which had been increased by the high-fat diet [2] | lipid accumulation in hepatocytes (HepG2 cells) | expression of SREBP-1 protein, which had been increased by the high-fat diet (SREBP-1)
1 | CNC(=S)NCc1ccc(OCc2ccccc2)cc1 [Compound 40, 1-(4-benzyloxy-benzyl)-3-methyl-thiourea] | decreased | decreased | increased | decreased | decreased | increased | decreased | not different from those in the high-fat diet group | not different from those in the high-fat diet group | decreased | decreased | decreased | significantly decreased | decreased
2 | CNC(=S)NCc1ccc(Oc2ccccc2)cc1 [Compound 42, 1-(4-phenoxy-benzyl)-3-methyl-thiourea] | decreased | decreased | increased | – | – | increased | decreased | not different from those in the high-fat diet group | not different from those in the high-fat diet group | decreased | decreased | decreased | significantly decreased | decreased
